Patent US20200270216A1, “COMPOSITIONS AND METHODS FOR INHIBITING N-SMASE2” (The Regents of the University of California, priority 2017, published 2020)
Entries after “also recorded” stand apart in the source; their conditions may differ.

Assays:
[1] = test system: HEK293T Tau RD P301S FRET biosensor cells; assay: D+R functional assay: tau seed transfer from P2-seeded donor cells to DiD-labeled recipient cells; assay type: cell-based
Procedure: The compounds disclosed herein were further evaluated in the functional assays (“D+R approach”). The assays were based on the use of two cell populations—donor cells (D) and recipient cells (R). Recipients express a specific signal upon accumulation of protein aggregates (for example, FRET signal). The D+R approach can be divided into four steps (FIG. 4A).
In step 1, donor and recipient cells were plated in separation and protein aggregation is induced in the donor cells by using tissue-derived or synthetic proteopathic seeds (“seeding”) or by chemical and/or genetic methods. In step 2, either donor cells or recipient cells were labeled with a lipophilic dye (or by other cell labeling technology) in order to be able to distinguish between donor and recipients cells after trypsinization and re-plating of the donor and recipient cells together in step 3 (R+D). Alternatively, donor and recipient cells were physically divided by a permeable support (for example, Transwell). In any scenario, the cells were connected through the media and they grow for 24-60 hours with or without addition of pre-selected compounds. Efficiency of proteopathic seed transmission from donor cells to recipient cells can be analyzed using microscopy, flow cytometry, or imaging flow cytometry. […] Treatment of the tau biosensor cells with tau seeds lead to RD aggregation, as a result, CFP and YFP molecules come into close proximity and a FRET signal can be generated in the CFP/YFP pair upon illumination. The far-red fluorescent, lipophilic carbocyanine dye, DiD, was used for labeling recipient cells. This dye allowed for distinguishing between the DiD-negative donor and the DiD positive recipient cells without interference with the CFP/YFP FRET signal. The representative images of DiD-negative FRETpositive donor cell seeded with P2-derived tau seeds), DiD-positive FRET-negative recipient cell (DiD-R), and DiD positive FRET-positive recipient cell, which were growing in the presence of P2-D (DiD-R/R+D) are presented at the FIG. 4B. […]

[2] = test system: P2-seeded tau biosensor cells; assay: EV purification and characterization (immunoblot of exosome markers, nanoparticle tracking analysis); assay type: cell-based
From the text: Extracellular vesicles (EVs) were purified from the cell culture medium using Exo-Quick-TC exosome purification kit (SBI, EXOTC10A-1) according to the manufacturing instructions. Immunoblot analysis of the EV fractions was done by 10-20% Tris-Glycine gel in non-reduced conditions, transferred to PVDF membrane and probed with antibodies against CD63 (ThermoFisher, 10628D), followed by HRP-conjugated secondary antibodies. Chemiluminescent signals were obtained with Super Signal West Femto substrate (Thermo Scientific Pierce 34,095) and detected using a BioSpectrum 600 imaging system and quantified using VisionWorks Version 6.6A software (UVP; Upland, Calif.). […] Inhibition of nSMase2 activity in cell extracts of confluent tau biosensors was confirmed by nSMase2 activity assay analogous to the one described in Example 2.
Our analysis confirmed that nSMase2 inhibitors suppress release of EVs from P2-seeded tau biosensor cells. […] EV samples purified from the same number of donor cells were analyzed per each group. Purified EVs were imaged by transmission electron microscopy (FIG. 5C). Size distribution of particles in the samples were assessed by nanoparticle tracking analysis (FIG. 5D). WB analysis for exosome markers also confirmed decrease in the exosome-specific marker expression (FIG. 5E).
Donor cells were grown in medium with exosome-depleted FBS (ThermoFisher, A2720803) for 48 hours with or without compounds, cell culture medium was collected and EVs purified using ExoQuick-TC kit (SBI biosciences). For quality control, small amounts of purified EVs were fixed on a copper mesh in glutaraldehyde/paraformaldehyde solution, stained with 2% uranyl acetate solution and imaged on a JEOL 100CX electron microscope at 29,000 times magnification. […] Chemiluminescent signals were obtained with Super Signal West Femto substrate (Thermo Scientific Pierce 34095) and detected using a BioSpectrum 600 imaging system and quantified using VisionWorks Version 6.6A software (UVP; Upland, Calif.).

`O=c1[nH]c(=S)[nH]c(-c2ccccc2)c1Cc1c(O)ccc2ccccc12` [cambinol] was tested, and the “tau seed transmission from donor cells to recipient cells” value ([1]; D+R model, flow cytometry (FIG. 4C)) was “restrained tau seed transmission from the donor cells to the recipient cells in a dose-dependent manner”, the EC50 ([1]; Homo sapiens, HEK-293T, 48 h, 48-hour treatment, P2-seeded donor cells, FRET-positive aggregates in recipient cells, read-out: EC50, reduction of tau transfer from donor to recipient cells (D+R assay)) was roughly 14 µM and the “levels of exosomal marker CD63 in cell medium EV fraction” value ([2]; 10 μM, 60 hours, Western blot (FIG. 3C)) was “Decrease”. For the same molecule, the “release of EVs from P2-seeded donor cells” value ([2]; 50 μM, 48 hours, nanoparticle tracking analysis) was “released less EVs; also recorded: more effective than the nSMase2 inhibitor GW4869”.
